Results as given in ChEMBL document CHEMBL3259703, “Synthesis and preliminary biological evaluation of 1,2,3-triazole-Jaspine B hybrids as potential cytotoxic agents” (Eur J Med Chem, 2014).
pIC50: −log10 of the molar value.

Columns and labels:
Type in all cases: functional, cell-based
[1] = Antiproliferative activity against human EC9706 cells after 48 hrs by MTT assay; conditions: EC9706, 48 h
[2] = test system: MGC-803; assay: Antiproliferative activity against human MGC803 cells after 48 hrs by MTT assay; conditions: MGC-803, 48 h
[3] = test system: MCF7; assay: Antiproliferative activity against human MCF7 cells after 48 hrs by MTT assay; conditions: MCF7, 48 h

Compound | pIC50 [1] | pIC50 [2] | pIC50 [3]
CCCCCCCCCCCCn1cc(COC[C@@H]2OC[C@H](N)[C@H]2O)nn1 | 4.03 | 3.94 | 5.58
CCCCCCCn1cc(COC[C@@H]2OC[C@H](N)[C@H]2O)nn1 | < 3.89 | < 3.89 | < 3.89
CCCCCCCCCCCCCCn1cc(COC[C@@H]2OC[C@H](N)[C@H]2O)nn1 | 5.18 | 5.06 | 5.61
CCCCCCCCCCn1cc(COC[C@@H]2OC[C@H](N)[C@H]2O)nn1 | 4.37 | 4.24 | 4.35
CCCCCCCCCCCCn1cc(COC[C@@H]2OC[C@H](N)[C@@H]2O)nn1 | 4.80 | 4.67 | 5.66
CCCCCCCCCCCCCCCCn1cc(COC[C@@H]2OC[C@H](N)[C@H]2O)nn1 | 5.20 | 5.27 | 5.65
CCCCCCCCCCCCCCCCn1cc(COC[C@@H]2OC[C@H](N)[C@@H]2O)nn1 | 4.70 | 4.55 | 5.48
CCCCCCCCCCn1cc(COC[C@@H]2OC[C@H](N)[C@@H]2O)nn1 | 4.81 | 5.06 | 5.02
CCCCCCCCCCCCCC[C@@H]1OC[C@H](N)[C@@H]1O [PACHASTRISSAMINE] | 5.21 | 5.29 | 5.32
